Legend:
Assay in all cases: relative viability (nuclei count vs DMSO), 5 days (fraction); higher = more cells survive
[1] = compound: CC1=C(N=C(N=C1N)[C@H](CC(=O)N)NC[C@@H](C(=O)N)N)C(=O)N[C@@H]([C@H](C2=CN=CN2)OC3C(C(C(C(O3)CO)O)O)OC4C(C(C(C(O4)CO)O)OC(=O)N)O)C(=O)N[C@H](C)[C@H]([C@H](C)C(=O)N[C@@H]([C@@H](C)O)C(=O)NCCC5=NC(=CS5)C6=NC(=CS6)C(=O)NCCC[S+](C)C)O [Bleomycin] + C[C@]1(O)C[C@@H](c2nc(-c3ccc4ccc(-c5ccccc5)nc4c3)c3c(N)nccn32)C1 [Linsitinib] (partner 1 µM); conditions: main component drawn
How it was run: (§1)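 Lung cancer cell lines were seeded in 1536-well plates and dosed by pin tool the next day, with either a single drug or a fixed anchor-drug dose combined with five library-drug doses (not always all listed) spaced in √10 steps. Five days later, one step fixed the cells and stained their nuclei (final 0.05% Triton X-100, 1% formaldehyde, 1 ug/ml Hoechst), and nuclei were counted on 4× images. Relative viability is the nuclei count in treated wells divided by the count in vehicle wells, and each value is the median of duplicate plates.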

[2] = compound: COc1cc([C@@H]2c3cc4c(cc3[C@@H](O[C@@H]3O[C@@H]5CO[C@@H](C)O[C@H]5[C@H](O)[C@H]3O)[C@H]3COC(=O)[C@H]23)OCO4)cc(OC)c1O [Etoposide] + C[C@@H](Oc1cc(-c2cnn(C3CCNCC3)c2)cnc1N)c1c(Cl)ccc(F)c1Cl [Crizotinib] (partner 1 µM)
How it was run: as §1

[3] = compound: COc1cc([C@@H]2c3cc4c(cc3[C@@H](O[C@@H]3O[C@@H]5CO[C@@H](C)O[C@H]5[C@H](O)[C@H]3O)[C@H]3COC(=O)[C@H]23)OCO4)cc(OC)c1O [Etoposide] + Nc1nc2[nH]cc(CCc3ccc(C(=O)N[C@@H](CCC(=O)O)C(=O)O)cc3)c2c(=O)[nH]1 [Pemetrexed] (partner 0.2 µM)
How it was run: as §1

[4] = compound: COc1cc([C@@H]2c3cc4c(cc3[C@@H](O[C@@H]3O[C@@H]5CO[C@@H](C)O[C@H]5[C@H](O)[C@H]3O)[C@H]3COC(=O)[C@H]23)OCO4)cc(OC)c1O [Etoposide] + O=C(c1cc(Cc2n[nH]c(=O)c3ccccc23)ccc1F)N1CCN(C(=O)C2CC2)CC1 [Olaparib] (partner 8 µM)
How it was run: as §1

Cell Line	relative viability ([1]; first compound 0.03162 µM)	relative viability ([1]; first compound 0.1 µM)	relative viability ([1]; first compound 0.3162 µM)	relative viability ([1]; first compound 1 µM)	relative viability ([2]; first compound 0.01 µM)	relative viability ([2]; first compound 0.03162 µM)	relative viability ([2]; first compound 0.1 µM)	relative viability ([2]; first compound 0.3162 µM)	relative viability ([2]; first compound 1 µM)	relative viability ([3]; first compound 0.01 µM)	relative viability ([3]; first compound 0.03162 µM)	relative viability ([3]; first compound 0.1 µM)	relative viability ([3]; first compound 0.3162 µM)	relative viability ([3]; first compound 1 µM)	relative viability ([4]; first compound 0.01 µM)	relative viability ([4]; first compound 0.03162 µM)	relative viability ([4]; first compound 0.1 µM)	relative viability ([4]; first compound 0.3162 µM)	relative viability ([4]; first compound 1 µM)	relative viability ([1]; first compound 0.01 µM)
NCI-H441	0.57	0.564	0.209	0.255	0.597	0.603	0.39	0.197	0.133	0.254	0.257	0.235	0.193	0.153	0.516	0.463	0.393	0.164	0.155	–
NCI-H322M	1.01	0.95	1.1	0.684	0.775	0.889	0.905	0.871	0.533	0.604	0.603	0.625	0.587	0.524	0.781	0.764	0.725	0.548	0.508	0.961
NCI-H2087	0.977	0.895	0.374	0.255	–	1.02	0.856	0.571	0.277	0.641	0.723	0.703	0.582	0.374	0.579	0.564	0.489	0.319	0.161	0.717
COR-L23	0.559	0.307	0.106	0.102	0.548	0.68	0.802	0.45	0.198	0.198	0.207	0.207	0.214	0.189	0.368	0.294	0.375	0.223	0.169	0.696
NCI-H2126	0.756	0.687	0.645	0.546	0.998	1.05	0.765	0.888	0.328	0.633	0.878	0.591	0.677	0.461	0.882	0.938	0.658	0.585	0.336	0.641
LC-2-ad	0.691	0.352	0.178	0.118	0.568	0.45	0.434	0.332	0.203	0.277	0.279	0.298	0.277	0.28	0.349	0.692	0.771	0.412	0.274	0.725
NCI-H1915	1.01	0.813	0.428	0.216	0.859	0.985	0.825	0.802	0.481	0.504	0.516	0.484	0.474	0.459	0.261	0.268	0.309	0.213	0.194	0.891
NCI-H2023	0.465	0.321	0.143	0.106	0.605	0.622	0.525	0.212	0.106	0.241	0.272	0.182	0.156	0.143	0.415	0.452	0.356	0.137	0.111	0.543

— the supplement of paper PMC10307832
